US8076485B2, “Methylphenidate derivatives and uses of them” (priority 2005, dated 2011)

Tests used:
Assay type in all cases: cell-based, human
[1] = system: peripheral blood lymphocytes (PBL); test: PBL proliferation assay (Promega cell titer, OD 530 nm); conditions: for proliferation of PBL stimulated with PHA (OD at 530 nm): Example 1, donor GR283; for proliferation of PBL, both unstimulated and stimulated with PHA (OD at 530 nm): Dex 10 μM
Method: Whole blood was drawn from GR283, a human volunteer with known allergies, into a glass vacutainer tube containing no anticoagulant. This blood was allowed to clot, and the serum was removed by centrifugation and then heat inactivated by placing it in a water bath at 56° C. for 30 minutes. Whole blood from GR283 was also drawn into a glass vacutainer tube containing heparin and used for peripheral blood lymphocytes (PBL) isolation as follows. Whole blood was layered over room temperature Histopaque 1077 solution and centrifuged at 2000 rpm for 15 minutes at room temperature. Cells at the plasma-Histopaque interface were then removed and washed with culture medium (IMDM medium with 10% heat-inactivated GR283 serum plus 1% penicillin/streptomycin) at 37° C.
Then, GR283's PBL in culture medium were added to the wells to give a final concentration of 150,000 cells per well, and the plates were incubated at 37° C., 5% CO2 for 24 hours. After this incubation, phytohemagglutinin (PHA) in culture medium was added to give final concentrations of 2 μg/ml, 5 μg/ml or 20 μg/ml, final total volume of 200 μl/well, and the cells were incubated for an additional 72 hours at 37° C., 5% CO2. All cultures were performed in triplicate.
Cell proliferation was assayed by adding 20 μl of Promega cell titer solution to each well and incubating the plate for an additional 4 hours. Promega cell titer solution is a solution containing a tetrazolium dye that is reduced by living cells to a formazan dye, and this reduction is proportional to the number of living cells present in the well. After the 4-hour incubation, the optical density (OD) at 530 nm of each well was measured. The OD at 530 nm for blank wells containing no cells was subtracted from the OD of the experimental wells.
Then, GR467's PBL in culture medium were added to the wells to give a final concentration of 150,000 cells per well, and the plates were incubated at 37° C., 5% CO2 for 24 hours. After this incubation, PHA was added to give a final concentration of 2 μg/ml, final total volume of 200 μl/well, and the cells were incubated for an additional 72 hours at 37° C., 5% CO2. All cultures were performed in triplicate.
Then, GR191's PBL in culture medium were added to the wells to give a final concentration of 150,000 cells per well, and the plates were incubated at 37° C., 5% CO2 for 24 hours. After this incubation, PHA was added to give final concentrations of 2 μg/ml and 5 μg/ml, final total volume of 200 μl/well, and the cells were incubated for an additional 72 hours at 37° C., 5% CO2. All cultures were performed in triplicate.

IL-13 = IL-13 release by PBL (ELISA); conditions: for IL-13 release induced by PHA: Example 2, GR467 PBL, 15 μg/ml Cpd II, 15 μg/ml MP, 10 μM Dex, PHA 2 μg/ml, 96 hours, FIG. 3
Method: (§1) After this incubation, PHA was added to give a final concentration of 2 μg/ml, and the cells were incubated for an additional 96 hours at 37° C., 5% CO2. All cultures were performed in triplicate. Cells were then removed by centrifugation at 1000 rpm for 10 minutes, and the culture medium collected.
(§2) Release of IL-13 and interferon gamma (IFNγ) into the culture medium was measured by ELISA. To perform the ELISA, matched pairs of antibodies against human IL-13 and IFNγ were purchased from Pierce Biotechnology and Biosource, respectively. ELISA strip well plates were coated with 10 μg/ml of antibody (in phosphate-buffered saline (PBS)) to IL-13 and 4 μg/ml of antibody to IFNγ (in PBS) overnight at room temperature. The plates were then blocked using a 4% BSA solution in PBS for one hour, followed by the addition of 50 μl of experimental culture medium per well in duplicate. The plates were incubated at room temperature for one hour and then washed using 50 mM Tris pH 8.0 with 0.1% Tween 20. Then, solutions of 400 ng/ml biotinylated second antibody to IL-13 and 500 ng/ml biotinylated second antibody to IFNγ were made in blocking buffer, and 100 μl were added per well. The plates were incubated for 1 hour and washed again. A 1:8000 dilution of Strepavidin HRP (Pierce Biotechnology) conjugate was made in blocking buffer, and 100 μl were added to the wells and incubation continued for 30 minutes. A final wash step was performed, after which 100 μl Pierce Biotechnology TMB substrate were added to each well. Color was developed for 30 minutes and stopped by adding 100 μl 0.18 NH2SO4. OD was determined using microplate reader with a 450 nm filter.
After this incubation, PHA was added to give a final concentration of 5 μg/ml, and the cells were incubated for an additional 72 hours at 37° C., 5% CO2. All cultures were performed in triplicate. Cells were then removed by centrifugation at 1000 rpm for 10 minutes.
The supernatants were collected, and the concentrations of IL-13 and tumor necrosis factor alpha (TNFα) in the supernatants were measured by ELISA. The IL-13 ELISA was performed as described in Example 2.

IFNγ = IFNγ release by PBL (ELISA); conditions: Example 2, GR467 PBL, 15 μg/ml Cpd II, 15 μg/ml MP, 10 μM Dex, FIG. 4; for IFNγ release, cells stimulated with PHA: PHA 2 μg/ml, 96 hours
Method: as §1, §2

IL-8 = IL-8 release by TNFα-stimulated HUVECs (ELISA); conditions: for IL-8 release stimulated by TNFα: HUVECs, 10 ng/ml TNFα, Cpd II 1-30 μg/ml, MP 15 μg/ml, Dex 10 μM, LY 294002 10 μM
Method: Passage 4 HUVECs, human source lot number 8710 (obtained from ATCC), were put into the wells of a 24-well tissue culture plate at 5,000 cells/well in EGM-2 medium and cultured for 72 hours at 37° C. and 5% CO2. […] After incubation for 1 hour at 37° C. and 5% CO2, TNFα (Pierce) was added to give a final concentration of 10 ng/ml, and the cells were incubated for an additional 18 hours at 37° C. and 5% CO2. After this incubation, the supernatants were collected, and the amount of IL-8 in the supernatants determined by ELISA as described in Example 4.

[2] = Cpd II and MP 5, 15, 50 μg/ml, Dex 10 μg/ml, PHA 2, 5, 20 μg/ml, FIGS. 1A-C
[3] = Example 2, donor GR467, Cpd II 5, 15, 25 μg/ml, MP 15 μg/ml, PHA 2 μg/ml, FIG. 2
[4] = Example 3, donor GR191, Cpd II 5, 15, 25, 50 μg/ml, MP 50 μg/ml, PHA 2 and 5 μg/ml, FIGS. 5A-B
[5] = Homo sapiens, HUVEC, 18 h, read-out: % inhibition (IL-8)

COC(=O)C(c1ccc(-c2ccccc2)cc1)C1CCCCN1 (stereo not drawn) [Cpd II] was tested, and the “proliferation of PBL stimulated with PHA (OD at 530 nm)” value (from here on “proliferation of PBL stimulated”) [1, 2] was “significantly inhibited the proliferation of PBL stimulated with PHA in a dose-dependent manner”, the “proliferation of PBL, both unstimulated and stimulated with PHA (OD at 530 nm)” value [1, 3] was “significantly inhibited the proliferation of PBL” and the “proliferation of PBL, both unstimulated and stimulated with PHA (OD at 530 nm)” value [1, 4] was “significantly inhibited the proliferation of PBL”. The “IL-13 release induced by PHA” value (IL-13) was “significantly inhibited IL-13 release”, the “release of IL-13 from PHA-stimulated PBL” value (IL-13; Example 3, GR191 PBL, Cpd II 15 and 50 μg/ml, Dex 10 μM, PHA 5 μg/ml, 72 hours, FIG. 6) was “significantly inhibited the release of IL-13” and the “IFNγ release, unstimulated cells” value (IFNγ) was “significantly inhibited IFNγ release”. The “IFNγ release, cells stimulated with PHA” value (IFNγ) was “significantly inhibited IFNγ release”, the “IL-8 release stimulated by TNFα” value (IL-8) was “decreased IL-8 release stimulated by TNFα in a dose-dependent manner” and the inhibition at 1 µg/mL (IL-8; [5]) was -51.1%. For the same compound, the inhibition at 5 µg/mL (IL-8; [5]) was 3.08%, the inhibition at 10 µg/mL (IL-8; [5]) was 38.2% and the inhibition at 15 µg/mL (IL-8; [5]) was 41.7%. It also gave an inhibition at 30 µg/mL (IL-8; [5]) of 86.9%.
In the case of COC(=O)C(c1ccccc1)C1CCCCN1 (stereo not drawn) [methylphenidate], the “proliferation of PBL stimulated” value [1, 2] was “did not significantly reduce the proliferation”, the “proliferation of PBL stimulated” value ([1]; highest MP dose (50 μg/ml) and lowest PHA dose (2 μg/ml)) was “showed a significant effect” and the “proliferation of PBL, both unstimulated and stimulated with PHA (OD at 530 nm)” value [1, 3] was “did not”. The “proliferation of PBL, both unstimulated and stimulated with PHA (OD at 530 nm)” value [1, 4] was “did not”, the “IL-13 release induced by PHA” value (IL-13) was “increased the release of IL-13” and the “IL-13 release induced by PHA” value (IL-13; listed as Methylphenidate) was “did not inhibit the release of IL-13”. For the same compound, the “IFNγ release, unstimulated cells” value (IFNγ) was “had some effect”, the “IFNγ release, cells stimulated with PHA” value (IFNγ) was “increased the release of IFNγ” and the “IFNγ release, cells stimulated with PHA” value (IFNγ; listed as Methylphenidate) was “did not significantly suppress the release of IFNγ”. The “IL-8 release stimulated by TNFα” value (IL-8) was “slightly decreased IL-8 release” and the inhibition at 15 µg/mL (IL-8; [5]) was 15.2%.
